Data on 2 compounds can be found in PubChem BioAssay AID1259407 (Chemical Carcinogenesis Research Information System (CCRIS), 2018).

This data set has as its system CCRIS mutagenicity, Ames/micronucleus/aberration tests. Put plainly: CCRIS mutagenicity studies.

“Also recorded” adds a separate entry of the source. Active and inactive are the calls of the source. The rule behind the calls is not given here.

For the compound `Oc1ccc(Cl)c(Cl)c1Cl`, the mutagenic call reads like this: (End Point: IN VITRO CHROMOSOMAL ABERRATIONS, Test System: CHINESE HAMSTER LUNG CELLS (CHL), Metabolic Activation: NONE) “inactive; negative”; (End Point: IN VITRO CHROMOSOMAL ABERRATIONS, Test System: CHINESE HAMSTER LUNG CELLS (CHL), Metabolic Activation: RAT, LIVER, S-9, KC-400) “inactive; negative”; (End Point: IN VITRO CHROMOSOMAL ABERRATIONS, Test System: CHINESE HAMSTER OVARY CELLS (CHO), Metabolic Activation: NONE) “inactive; negative”; (End Point: IN VITRO CHROMOSOMAL ABERRATIONS, Test System: CHINESE HAMSTER OVARY CELLS (CHO), Metabolic Activation: RAT, LIVER, S-9, AROCLOR 1254) “active; positive (structural changes); positive only at highest dose where a total of 25”; (End Point: IN VITRO CHROMOSOMAL ABERRATIONS, Test System: CHL CELLS, Metabolic Activation: S-9) “inactive; positive (structural changes); multilaboratory comparison among 5 labs; 4 report; also recorded: inactive; positive (structural changes); multilaboratory comparison among 6 labs; 5 report”; (End Point: IN VITRO CHROMOSOMAL ABERRATIONS, Test System: CHO CELLS, Metabolic Activation: NONE) “inactive; positive (structural changes); multilaboratory comparison among 5 labs; 4 report; also recorded: inactive; negative; multilaboratory comparison among 5 labs; 1 reported weakly positive; 4; also recorded: inactive; negative; multilaboratory comparison among 4 labs; negative except for 1 weak po”. In addition, the mutagenic call by setting is: (End Point: IN VITRO CHROMOSOMAL ABERRATIONS, Test System: CHO CELLS, Metabolic Activation: S-9) “active; positive (structural changes); multilaboratory comparison among 6 labs; all repo; also recorded: inactive; positive (structural changes); multilaboratory comparison among 5 labs; 2 report”; (Test System: AMES SALMONELLA TYPHIMURIUM, Strain/Indicator: TA97, Metabolic Activation: HAMSTER, LIVER, S-9, AROCLOR 1254 (10 OR 30%), Method: PREINCUBATION) “inactive; negative”; (Test System: AMES SALMONELLA TYPHIMURIUM, Strain/Indicator: TA97, Metabolic Activation: NONE, Method: PREINCUBATION) “inactive; negative”; (Test System: AMES SALMONELLA TYPHIMURIUM, Strain/Indicator: TA97, Metabolic Activation: RAT, LIVER, S-9, AROCLOR 1254 (10 OR 30%), Method: PREINCUBATION) “inactive; negative”; (Test System: AMES SALMONELLA TYPHIMURIUM, Strain/Indicator: TA98, Metabolic Activation: HAMSTER, LIVER, S-9, AROCLOR 1254 (10 OR 30%), Method: PREINCUBATION) “inactive; negative”; (Test System: AMES SALMONELLA TYPHIMURIUM, Strain/Indicator: TA98, Metabolic Activation: NONE, Method: PREINCUBATION) “inactive; negative”. The mutagenic call is, setting by setting: (Test System: AMES SALMONELLA TYPHIMURIUM, Strain/Indicator: TA98, Metabolic Activation: RAT, LIVER, S-9, AROCLOR 1254 (10 OR 30%), Method: PREINCUBATION) “inactive; negative”; (Test System: AMES SALMONELLA TYPHIMURIUM, Strain/Indicator: TA100, Metabolic Activation: HAMSTER, LIVER, S-9, AROCLOR 1254 (10 OR 30%), Method: PREINCUBATION) “inactive; negative”; (Test System: AMES SALMONELLA TYPHIMURIUM, Strain/Indicator: TA100, Metabolic Activation: NONE, Method: PREINCUBATION) “inactive; negative”; (Test System: AMES SALMONELLA TYPHIMURIUM, Strain/Indicator: TA100, Metabolic Activation: RAT, LIVER, S-9, AROCLOR 1254 (10 OR 30%), Method: PREINCUBATION) “inactive; negative”; (Test System: AMES SALMONELLA TYPHIMURIUM, Strain/Indicator: TA1535, Metabolic Activation: HAMSTER, LIVER, S-9, AROCLOR 1254 (10 OR 30%), Method: PREINCUBATION) “inactive; negative”; (Test System: AMES SALMONELLA TYPHIMURIUM, Strain/Indicator: TA1535, Metabolic Activation: NONE, Method: PREINCUBATION) “inactive; negative”. Moreover, the mutagenic call (Test System: AMES SALMONELLA TYPHIMURIUM, Strain/Indicator: TA1535, Metabolic Activation: RAT, LIVER, S-9, AROCLOR 1254 (10 OR 30%), Method: PREINCUBATION) is “inactive; negative”; the mutagenic call (Test System: AMES SALMONELLA TYPHIMURIUM, Strain/Indicator: TA1537, Metabolic Activation: HAMSTER, LIVER, S-9, AROCLOR 1254 (30%), Method: PREINCUBATION) is “inactive; negative”; the mutagenic call (Test System: AMES SALMONELLA TYPHIMURIUM, Strain/Indicator: TA1537, Metabolic Activation: NONE, Method: PREINCUBATION) was “inactive; negative”; the mutagenic call (Test System: AMES SALMONELLA TYPHIMURIUM, Strain/Indicator: TA1537, Metabolic Activation: RAT, LIVER, S-9, AROCLOR 1254 (30%), Method: PREINCUBATION) is “inactive; negative”.

Take `Cc1c2ccccc2c(CO)c2ccc3ccccc3c12`: the mutagenic call by setting is: (Test System: AMES SALMONELLA TYPHIMURIUM, Strain/Indicator: TA98, Metabolic Activation: HUMAN, LIVER, CYTOSOL, PAPS, Method: PREINCUBATION) “active; positive”; (Test System: AMES SALMONELLA TYPHIMURIUM, Strain/Indicator: TA100, Metabolic Activation: RAT, LIVER, PARENCHYMAL CELLS (CRYOPRESERVED), Method: PREINCUBATION) “inactive; negative”; (Test System: AMES SALMONELLA TYPHIMURIUM, Strain/Indicator: TA100, Metabolic Activation: RAT, LIVER, PARENCHYMAL CELLS (FRESHLY ISOLATED), Method: PREINCUBATION) “active; positive”; (Test System: AMES SALMONELLA TYPHIMURIUM, Strain/Indicator: TA100, Metabolic Activation: RAT, LIVER, S-9, AROCLOR 1254, Method: STANDARD PLATE) “active; positive”; (Test System: CHINESE HAMSTER V-79, Strain/Indicator: V-79/6-THIOGUANINE, Metabolic Activation: CELL-MEDIATED, Method: STANDARD PLATE) “active; positive”; (Test System: CHINESE HAMSTER V-79, Strain/Indicator: V-79/OUABAIN, Metabolic Activation: CELL-MEDIATED, Method: STANDARD PLATE) “active; positive”.
